Experimental data from patent publication EP0615158A1, “A silver halide photographic light-sensitive material” (KONICA CORPORATION, priority 1993, dated 1994).

Conditions: method of Shin Jikken Kagaku Koza, Kihon Sosa 1

SMILES | solubility in water at 25°C
C=Cc1ccccc1 [styrene] | 0.03 % by weight
C=C(C)C(=O)OCCCC [butyl methacrylate] | 0.03 % by weight
